Biological target: T1, T1R2/T1R3 taste receptor (Homo sapiens, UniProt Q7RTX0+Q8TE23)
T1 sequence (Q8TE23 20-839): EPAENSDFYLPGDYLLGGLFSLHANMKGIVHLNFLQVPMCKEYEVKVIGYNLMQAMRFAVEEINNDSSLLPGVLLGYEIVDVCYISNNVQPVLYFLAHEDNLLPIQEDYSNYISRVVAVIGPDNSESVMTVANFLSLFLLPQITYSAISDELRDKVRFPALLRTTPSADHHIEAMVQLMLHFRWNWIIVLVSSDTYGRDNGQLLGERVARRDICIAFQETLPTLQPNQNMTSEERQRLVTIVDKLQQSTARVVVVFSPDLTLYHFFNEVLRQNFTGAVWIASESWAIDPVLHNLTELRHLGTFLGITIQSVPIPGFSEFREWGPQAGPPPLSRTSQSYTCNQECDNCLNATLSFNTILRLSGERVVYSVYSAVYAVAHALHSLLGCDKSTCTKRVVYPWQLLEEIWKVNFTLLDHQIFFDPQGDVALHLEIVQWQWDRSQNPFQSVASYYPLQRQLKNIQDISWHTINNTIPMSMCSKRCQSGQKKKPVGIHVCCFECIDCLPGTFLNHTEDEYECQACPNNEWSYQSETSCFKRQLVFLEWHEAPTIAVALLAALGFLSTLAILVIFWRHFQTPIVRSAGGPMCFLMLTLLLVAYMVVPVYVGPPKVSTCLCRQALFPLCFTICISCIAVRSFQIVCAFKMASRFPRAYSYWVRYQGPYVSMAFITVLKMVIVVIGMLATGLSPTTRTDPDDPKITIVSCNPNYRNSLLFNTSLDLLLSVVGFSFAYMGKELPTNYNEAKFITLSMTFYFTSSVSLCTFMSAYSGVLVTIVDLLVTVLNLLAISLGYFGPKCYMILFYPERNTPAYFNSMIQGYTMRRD
T1 sequence (Q7RTX0 21-852): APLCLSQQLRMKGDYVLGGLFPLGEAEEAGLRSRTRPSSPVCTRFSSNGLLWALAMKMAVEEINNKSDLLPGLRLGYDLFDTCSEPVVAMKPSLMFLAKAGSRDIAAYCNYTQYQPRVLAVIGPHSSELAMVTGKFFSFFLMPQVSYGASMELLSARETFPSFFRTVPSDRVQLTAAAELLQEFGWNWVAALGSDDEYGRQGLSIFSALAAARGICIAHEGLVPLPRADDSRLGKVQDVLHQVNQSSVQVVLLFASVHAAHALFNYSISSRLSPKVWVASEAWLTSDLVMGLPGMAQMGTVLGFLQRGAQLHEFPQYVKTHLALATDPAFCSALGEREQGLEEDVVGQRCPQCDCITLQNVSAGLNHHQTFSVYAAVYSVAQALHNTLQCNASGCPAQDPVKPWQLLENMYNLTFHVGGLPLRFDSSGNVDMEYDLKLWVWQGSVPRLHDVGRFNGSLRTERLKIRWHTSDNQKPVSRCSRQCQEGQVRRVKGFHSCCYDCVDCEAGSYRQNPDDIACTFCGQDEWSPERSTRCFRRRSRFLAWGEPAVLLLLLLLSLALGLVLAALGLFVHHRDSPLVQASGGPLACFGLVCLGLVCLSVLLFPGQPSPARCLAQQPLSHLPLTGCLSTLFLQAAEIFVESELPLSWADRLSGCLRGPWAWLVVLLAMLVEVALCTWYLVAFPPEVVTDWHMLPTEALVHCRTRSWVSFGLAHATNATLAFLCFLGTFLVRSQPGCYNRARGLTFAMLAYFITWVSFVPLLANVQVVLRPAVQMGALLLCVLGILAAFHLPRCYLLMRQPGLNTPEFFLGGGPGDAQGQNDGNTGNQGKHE
Experiment: Receptor-based assay: sweetener EC50 enhancement ratio with and without test compound
Type: cell-based
Settings: for Sucrose Enhancement EC50 Ratio: sweetener sucrose; for Sucralose Enhancement EC50 Ratio: sweetener sucralose; for Fructose Enhancement EC50 Ratio: sweetener fructose
Method: Potencies (EC50 values) for the sweeteners sucrose, sucralose, and fructose were measured against the T1R2/T1R3 taste receptor. EC50 was determined using the sweetener alone and in the presence of 1 μM, 3 μM, 10 μM, or 50 μM of test compound. EC50 ratios were calculated by the ratio of potency with and without the test compound. An “A” value indicates an enhancement ratio of greater than 1 and less than 10. A “B” value indicates an enhancement ratio from 10 to 20. A “C” value indicates an enhancement ratio greater than 20.

Structure (SMILES) | Sucralose Enhancement EC50 Ratio (10 μM test compound) | Sucrose Enhancement EC50 Ratio (1 μM test compound) | Sucralose Enhancement EC50 Ratio (3 μM test compound) | Sucrose Enhancement EC50 Ratio (3 μM test compound) | Fructose Enhancement EC50 Ratio (10 μM test compound) | Sucrose Enhancement EC50 Ratio (10 μM test compound) | Fructose Enhancement EC50 Ratio (50 μM test compound)
CNCC(=O)N[C@H]1CC[C@H](Oc2cccc3nc(C)c(C(=O)O)c(N)c23)CC1 [Compound 402] | A (an enhancement ratio of greater than 1 and less than 10) | A (an enhancement ratio of greater than 1 and less than 10) |  | A (an enhancement ratio of greater than 1 and less than 10) | A (an enhancement ratio of greater than 1 and less than 10) | B (an enhancement ratio from 10 to 20) | 
CCCc1nc2cccc(OC3CCC(C)(C)CC3)c2c(N)c1C(=O)O [Compound 208] |  | A (an enhancement ratio of greater than 1 and less than 10) |  | A (an enhancement ratio of greater than 1 and less than 10) |  | A (an enhancement ratio of greater than 1 and less than 10) | 
CCc1nc2cccc(O[C@H]3CC[C@H](COC)CC3)c2c(N)c1C(=O)O [Compound 205] | B (an enhancement ratio from 10 to 20) | A (an enhancement ratio of greater than 1 and less than 10) |  | B (an enhancement ratio from 10 to 20) |  | B (an enhancement ratio from 10 to 20) | 
Cc1nc2cccc(O[C@H]3CC[C@H](NC(=O)COCCOC(C)C)CC3)c2c(N)c1C(=O)O [Compound 329] |  | A (an enhancement ratio of greater than 1 and less than 10) | A (an enhancement ratio of greater than 1 and less than 10) | B (an enhancement ratio from 10 to 20) |  |  | 
CCOCC(=O)NC[C@H]1CC[C@H](Oc2cccc3nc(C)c(C(=O)O)c(N)c23)CC1 [Compound 603] | C (an enhancement ratio greater than 20) | A (an enhancement ratio of greater than 1 and less than 10) |  | C (an enhancement ratio greater than 20) |  | C (an enhancement ratio greater than 20) | 
CCCc1nc2cccc(O[C@H]3CC[C@H](C)CC3)c2c(N)c1C(=O)O [Compound 207] |  | A (an enhancement ratio of greater than 1 and less than 10) |  | A (an enhancement ratio of greater than 1 and less than 10) |  | A (an enhancement ratio of greater than 1 and less than 10) | 
CN[C@H](C(=O)N[C@H]1CC[C@H](Oc2cccc3nc(C)c(C(=O)O)c(N)c23)CC1)C(C)C [Compound 503] | B (an enhancement ratio from 10 to 20) | A (an enhancement ratio of greater than 1 and less than 10) |  | A (an enhancement ratio of greater than 1 and less than 10) | A (an enhancement ratio of greater than 1 and less than 10) | A (an enhancement ratio of greater than 1 and less than 10) | A (an enhancement ratio of greater than 1 and less than 10)
CN[C@@H](C)C(=O)N[C@H]1CC[C@H](Oc2cccc3nc(C)c(C(=O)O)c(N)c23)CC1.Cl [Compound 500] | A (an enhancement ratio of greater than 1 and less than 10) | A (an enhancement ratio of greater than 1 and less than 10) |  | A (an enhancement ratio of greater than 1 and less than 10) |  | A (an enhancement ratio of greater than 1 and less than 10) | A (an enhancement ratio of greater than 1 and less than 10)
COCC(=O)N[C@H]1CC[C@H](Oc2cccc3nc(C)c(C(=O)O)c(N)c23)CC1 [Compound 304] |  | A (an enhancement ratio of greater than 1 and less than 10) |  | B (an enhancement ratio from 10 to 20) |  | A (an enhancement ratio of greater than 1 and less than 10) | 
Cc1nc2cccc(O[C@H]3CC[C@H](NC(=O)CCCC(C)C)CC3)c2c(N)c1C(=O)O [Compound 319] |  | A (an enhancement ratio of greater than 1 and less than 10) |  | A (an enhancement ratio of greater than 1 and less than 10) |  | A (an enhancement ratio of greater than 1 and less than 10) | 
CN[C@@H](CO)C(=O)N[C@H]1CC[C@H](Oc2cccc3nc(C)c(C(=O)O)c(N)c23)CC1 [Compound 502] | A (an enhancement ratio of greater than 1 and less than 10) | A (an enhancement ratio of greater than 1 and less than 10) |  | A (an enhancement ratio of greater than 1 and less than 10) | A (an enhancement ratio of greater than 1 and less than 10) | A (an enhancement ratio of greater than 1 and less than 10) | A (an enhancement ratio of greater than 1 and less than 10)

Second part, led by results:

Sucralose Enhancement EC50 Ratio (10 μM test compound) | Structure (SMILES) | Sucrose Enhancement EC50 Ratio (1 μM test compound) | Sucralose Enhancement EC50 Ratio (3 μM test compound) | Sucrose Enhancement EC50 Ratio (3 μM test compound) | Fructose Enhancement EC50 Ratio (10 μM test compound) | Sucrose Enhancement EC50 Ratio (10 μM test compound) | Fructose Enhancement EC50 Ratio (50 μM test compound)
B (an enhancement ratio from 10 to 20) | CCCc1cnc(N[C@H]2CC[C@H](Oc3cccc4nc(C)c(C(=O)O)c(N)c34)CC2)nc1 [Compound 706] | A (an enhancement ratio of greater than 1 and less than 10) | A (an enhancement ratio of greater than 1 and less than 10) | A (an enhancement ratio of greater than 1 and less than 10) | A (an enhancement ratio of greater than 1 and less than 10) | B (an enhancement ratio from 10 to 20) | A (an enhancement ratio of greater than 1 and less than 10)
B (an enhancement ratio from 10 to 20) | CCc1cnc(N[C@H]2CC[C@H](Oc3cccc4nc(C)c(C(=O)O)c(N)c34)CC2)nc1 [Compound 711] | A (an enhancement ratio of greater than 1 and less than 10) | B (an enhancement ratio from 10 to 20) | A (an enhancement ratio of greater than 1 and less than 10) | A (an enhancement ratio of greater than 1 and less than 10) | B (an enhancement ratio from 10 to 20) | A (an enhancement ratio of greater than 1 and less than 10)
B (an enhancement ratio from 10 to 20) | Cc1nc2cccc(O[C@H]3CC[C@H](Nc4cnccn4)CC3)c2c(N)c1C(=O)O [Compound 713] | A (an enhancement ratio of greater than 1 and less than 10) | A (an enhancement ratio of greater than 1 and less than 10) | B (an enhancement ratio from 10 to 20) | A (an enhancement ratio of greater than 1 and less than 10) | B (an enhancement ratio from 10 to 20) | A (an enhancement ratio of greater than 1 and less than 10)

Reference: US11339128B2 (Firmenich Incorporated, priority 2014, dated 2022)
